This note sets out measurements from PMC12818720, “Nanoengineered Self-Assembling Peptides with Increased Proteolytic Stability Promote Wound Healing” (ACS Applied Materials & Interfaces, 2025).

Ends that are not written are not given here.

One series has as its system HaCaT cells. The series can be described thus: Cytotoxicity / metabolic activity, AlamarBlue direct contact assay. The series is classed as cell-based, human. Conditions: assembly performed in the presence of Cu2+ (1:1), 24 h, serum-free DMEM-HG. Background: Resazurin is reduced to fluorescent resorufin, in cell work by metabolically active cells.
The target of the next series is T1, proteinase K (Parengyodontium album, UniProt P06873).
T1 construct: purchased AppliChem
T1 sequence (P06873 106-384): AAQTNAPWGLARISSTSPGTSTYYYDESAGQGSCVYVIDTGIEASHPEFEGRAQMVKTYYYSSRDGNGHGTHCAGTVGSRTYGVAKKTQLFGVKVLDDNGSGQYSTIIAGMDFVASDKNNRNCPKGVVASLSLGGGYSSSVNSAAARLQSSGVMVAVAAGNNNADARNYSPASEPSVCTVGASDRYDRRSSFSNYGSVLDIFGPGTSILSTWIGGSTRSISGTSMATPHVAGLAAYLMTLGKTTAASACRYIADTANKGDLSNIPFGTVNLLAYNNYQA
Kind of series: Stability of peptide assemblies against proteinase K (HPLC). The series is classed as in vitro ADME. To be noted: in the presence of Cu2+, peptide 2 mM. How it is done:
The chemical structure and molecular packing of the peptides play a crucial role in their stability by (un)-shielding the amide bonds from enzymatic degradation. − We investigated the stability of the supramolecular assemblies generated by Pep1–Pep3 in the presence of proteinase K. This enzyme was selected because of its activity toward a broad range of peptides/proteins that spans different temperatures (25–65 °C) and pH values (7–12).
A stock solution of proteinase K (50 μg/mL, AppliChem) was prepared in PBS. Peptide assemblies were prepared as described in Section 1 day prior the assay. These samples were incubated with proteinase K (final concentration: 10 μg/mL for proteinase K and 2 mM for Cu-free or Cu-complexed Pep1-Pep3). At each designated time point, an aliquot of 150 μL was collected, and the enzymatic activity was stopped by adding 300 μL of 1:1 H2O/ACN with 0.1% TFA. The aliquot was quantitatively assessed using HPLC under the conditions described in Section . Each sample was run in duplicate to ensure reliable results.

Protocol for HaCaT cells: As the designed systems target wound healing, we assessed their cytocompatibility toward human keratinocyte cell line HaCaT.
The cytotoxicity evaluation of the peptides and their supramolecular assemblies was evaluated by direct contact assay with HaCaT cells using the AlamarBlue HS Cell Viability Reagent assay (Biorad). Briefly, HaCaT cells were cultured in DMEM-HG supplemented with 10% FBS (2.5 × 10^4 cell/well) in 96-well plates for 24 h. Peptide solutions (10 mM) were prepared 24 h before the assay and sterilized (UV, 30 min). These solutions were diluted in serum-free DMEM-HG just prior to the assay to obtain concentrations ranging from 1 to 0.05 mM and added to the cultured HaCaT cells. Cultures with the peptides were mantained for 24 h and then the medium was aspirated, and AlamarBlue HS Cell Viability solution (10% (v/v) in DMEM-HG) was added to each well. The plates were incubated for 3 h at 37 °C with 5% CO2. The medium from each well was transferred to a black 96-well plate, and the fluorescence was measured using a microplate reader (Synergy, Bio-Tek) with an excitation wavelength of 550 nm and an emission wavelength of 590 nm. Cells cultured on tissue culture polystyrene (TCPS) were used as a positive control and cells treated with 20% DMSO were used as a negative one.

In the case of FFFFDGHK [Pep2], in the series with HaCaT cells, the “concentration above which cytotoxicity was observed” value is recorded as “above 250 μM”.

In the case of FFFFDKHG [Pep3], the “concentration above which cytotoxicity was observed” value in the series on HaCaT cells is “above 250 μM”. Also, the “peptide not degraded after 6 h of incubation with proteinase K” value on proteinase K (proteinase K 10 μg/mL in PBS, 6 h, HPLC read-out, run in duplicate) is “more than 90%”. In addition, the “initial concentration still present after 24 h with proteinase K” value on proteinase K (proteinase K 10 μg/mL in PBS, 24 h, HPLC read-out, run in duplicate) is listed as 60%. Also, at proteinase K (proteinase K 10 μg/mL, HPLC), the “relative stability to proteinase K (in words)” value is listed as “most stable”.
